Laboratory results: patent US11124774B2, “Engineered liver tissues, arrays thereof, and methods of making the same” (Organovo, Inc., priority 2013, dated 2021)

Test system: bioprinted hepatic stellate cell tissues
Experiment: Stimulation of bioprinted hepatic stellate cell tissues with cytokine
Format: cell-based, human
Method: FIG. 15 is a non-limiting example of stimulation of bioprinted hepatic stellate cell tissues with TGF-β1.
Cylindrical bio-ink comprising relevant heterogeneous (i.e., polytypic) cell populations were prepared. Physiologically-relevant populations (e.g., hepatic stellate cells (hSC) and human aortic endothelial cells (EC)) of cells were combined at specific ratios to generate proper bio-ink. Cells were maintained and propagated under standard laboratory conditions and cells were cultured in media either purchased from the same vendor as the cells, or media comprising components typically found in the primary literature to be conducive to standard cell culture practices for those particular cell types. Cell processing for bio-ink preparation was as follows: briefly, cells were liberated from standard tissue culture plastic by washing with cation-free phosphate buffered saline (PBS) and then exposed to 0.1-0.05% trypsin (Invitrogen). Liberated cells were then washed in serum-containing media, collected, counted, and combined in an appropriate ratio for the stimulation assay or experiment being conducted, and pelleted by centrifugation. Supernatant was then removed and the cell pellet was aspirated into a glass microcapillary, which was then submerged in complete media for approximately 15 to 20 minutes. This cylindrical bio-ink structure was then extruded into a non cell-adherent hydrogel mold, containing linear channels and held for 2 to 18 hours. Cylindrical bio-ink containing hSC:EC was then used to fabricate bioprinted tissue constructs and maintained and/or matured in a humidified chamber. Tissue segments were fabricated with initial dimensions of 1.25 mm×8 mm×0.25 mm (W×L×H). During the post-bioprinting maturation period some constructs were exposed to the cytokine TGF-β1 to elicit a tissue-specific response (see FIG. 15).
The bioprinted neotissues were then submerged in serum-containing complete cell culture media and placed in a standard humidified chamber, supplemented with 5% CO2 for maturation. The bioprinted neotissues were then cultured and stimulated with a relevant cytokine(s) for a predetermined period of time, formalin-fixed, harvested, and processed for standard histology and immunohistochemistry. The bioprinted tissues were evaluated for characteristics such as, but not limited to for tissue morphology, cell organization, extracellular matrix production, cell proliferation, cell viability, and construct integrity.
Cytokine stimulation was conducted by adding cytokine directly to the culture media and incubating the bioprinted tissues with the added protein to provide direct and prolonged cell access to the proper stimulus. […]

[1] = 0-50 ng/mL, tissue sections of bioprinted hepatic stellate-containing tissues (FIG. 15E-H)

Q: Which results are given for “TGF-β1: cytokine (transforming growth factor beta 1) used to elicit a tissue-specific response in bioprinted tissues”?
A: cell density [1]: dramatic decreases in cell density; collagen deposition (Trichrome staining) [1]: increases in collagen deposition; construct size [1]: increases; tissue outgrowth formation (gross observation) (increasing concentrations 0, 1, 10, 50 ng/mL, bioprinted hepatic stellate cell sheets (FIG. 15A-D)): increases in tissue outgrowth formation
